For one assay, the system named is green rice leafhopper. Nature of the assay: Contact test for killing green rice leafhopper. The note with it: Nephotettix cincticeps, 48 h, read-out: LC50 (median lethal dose). Format: in vivo. How it is done:
Stems and leaves of a rice seedling were dipped in each emulsion of each active ingredient of the present invention or a reference compound for 10 seconds and were dried in air. The stems and leaves were covered with a glass cylinder. Adult green rice leafhoppers which are resistant to the conventional organic phosphorus type insecticide were released into the glass cylinder which was covered with a cover having holes and was maintained in a constant temperature room at 25° C. for 48 hours and each percent mortality was determined and median lethal dose (LC50) was calculated in Finny's graphic method.

The next assay relates to Common cutworm. Nature of the assay: Contact test for killing Common cutworm. It counts as in vivo, Spodoptcra litura. The note with it: 48 h, read-out: LC50 (median lethal dose). The procedure:
Leaves of cabbage were dipped in each aqueous emulsion of each active ingredient of the compounds of the invention or the reference for 10 seconds. The leaves were taken up and dried in air and put in a Petri dish. Common cutworms (second instar) were put in the Petri dish which was covered with a cover having many holes. The Petri dish was maintained in a constant temperature room at 25° C. for 48 hours and each percent mortality was determined and median lethal dose (LC50) was calculated in Finny's graphic method.

In the next assay the test system is Kanzawa spider mite. The experiment in a line: Test for killing Kanzawa spider mite. It counts as in vivo. The note with it: Tetranychus kanzawai, in Phaseolus vulgaris, 48 h, read-out: LC50 (median lethal dose). The source says: Leaves of kidney bean was cut by a leaf-punch in a form of circle having a diameter of 1.5 cm. The leaf-discs were put on a wet filter paper on a polystyrene cup having a diameter of 7 cm. Ten of Kanzawa spider mites were inoculated on the leaf-discs in the cup. Half days after the inoculation, each solution prepared by diluting each emulsifiable concentrate of the present invention or each reference compound with a spreader (Nitten S 4,000 times manufactured by Nissan Chem.) at each predetermined concentration was sprayed by a rotary spray for 2 ml. per each cup.
Numbers of mortalities of mites were measured after 48 hours from the spraying and percent mortaliteis were calculated and median lethal dose (LC50) was calculated in Finny's graphic method.

Assay [1] has as its system Twenty-eight-spotted Ladybeetle. Nature of the assay: Contact test for killing Twenty-eight-spotted Ladybeetle. The conditions noted are these: Henosepilachna vigintioctopunctata, in Solanum lycopersicum, 48 h, read-out: LC50 (median lethal dose). Format: in vivo. The procedure: Leaves of tomato were dipped in each emulsion of each active ingredient of the present invention or the reference for 10 seconds. The leaves were taken up and dired in air and put in a Petri dish. Ten of Twenty-eight-spotted Ladybeetles (second instar) were put in the Petri dish which was covered with a cover. The Petri dish was maintained in a constant temperature room at 25° C. for 48 hours and percent mortality was determined and median lethal dose (LC50) was calculated in Finny's graphic method.

The test system of the next assay is Green peach aphid. Nature of the assay: Test for killing Green peach aphid. Format: in vivo, Myzue persicae. The note with it: Myzus persicae, 48 h, read-out: LC50 (median lethal dose). How it is done: Each emulsifiable concentrate of the compound of the present invention or the reference compound was diluted with water to a predetermined concentration. Green peach aphid were inoculated on leaves in a Petri dish having a diameter of 3 cm and 2 ml of each emulsion was sprayed and it was covered. The Petri dish was maintained in a constant temperature room at 25° C. for 48 hours and each percent of mortality was determined and median lethal dose (LC50) was calculated in Finny's graphic method.

A word on the LC50: it is the concentration that kills 50% of the test population.

Converted amounts (≈) assume the structure as drawn.

For the molecule `CC(C)C(C(=O)OC(C#N)c1ccc(F)c(Oc2ccccc2)n1)c1ccc(Cl)cc1` (stereo not drawn) [Compound No. 1, Cyano(5-fluoro-6-phenoxy-2-pyridyl) methyl α-isopropyl-p-chlorophenylacetate], the 50% lethal concentration (LC50) amounted to 0.26 µg/mL (≈ 0.592 µM) in the assay on green rice leafhopper, 0.43 µg/mL (≈ 0.98 µM) in the assay on Common cutworm, 6.3 µg/mL (≈ 14.4 µM) in the assay with Kanzawa spider mite and 0.05 µg/mL (≈ 0.114 µM) in assay [1].

Take `CC1(C)C(C(=O)OC(C#N)c2cccc(Oc3ccc(F)cc3)n2)C1c1ccc(Cl)cc1` (centres unmarked) [Reference Compd. E]: the LC50 in the assay with green rice leafhopper came to 16 µg/mL (≈ 35.5 µM); in the assay on Common cutworm, 13 µg/mL (≈ 28.8 µM).

With `CC(C)C(C(=O)OC(C#N)c1ccc(F)c(Oc2ccccc2)n1)c1ccc(OC(F)F)cc1` (centres unmarked) [Compound No. 2], the LC50 turned out to be 0.28 µg/mL (≈ 0.595 µM) with green rice leafhopper; 3 µg/mL (≈ 6.38 µM) in the assay on Common cutworm; 2.3 µg/mL (≈ 4.89 µM) in the assay with Green peach aphid; 12 µg/mL (≈ 25.5 µM) in the assay on Kanzawa spider mite; 0.5 µg/mL (≈ 1.06 µM) in assay [1].

As for `CC1(C)[C@H](C(=O)OC(C#N)c2ccc(F)c(Oc3ccccc3)n2)[C@@H]1C=C(Br)Br` (stereo partly drawn) [Compound No. 6, Cyano(5-fluoro-6-phenoxy-2-pyridyl) methyl (1R, cis)-2,2-dimethyl-3-(2,2-dibromovinyl)cyclopropane carboxylate], the values for the LC50 (with green rice leafhopper; with Common cutworm; in assay [1]) were 0.31 µg/mL (≈ 0.591 µM), 0.24 µg/mL (≈ 0.458 µM) and 0.02 µg/mL (≈ 0.0382 µM), respectively.

As to `CCCCc1ccc(C2C(C(=O)OC(C#N)c3cccc(Oc4ccccc4)n3)C2(C)C)cc1` (centres unmarked) [Reference Compd. H], the LC50 worked out at 6.4 µg/mL (≈ 14.1 µM) in the assay with green rice leafhopper and 12 µg/mL (≈ 26.4 µM) in the assay with Green peach aphid.

Turning to `CC1(C)C(C=C(Cl)Cl)C1C(=O)OC(C#N)c1ccc(F)c(Oc2ccccc2)n1` (centres unmarked) [Compound No. 5], the LC50 with green rice leafhopper stood at 0.4 µg/mL (≈ 0.919 µM); in the assay on Common cutworm it was 0.31 µg/mL (≈ 0.712 µM); in the assay with Green peach aphid, 1.84 µg/mL (≈ 4.23 µM); in the assay on Kanzawa spider mite, 5.4 µg/mL (≈ 12.4 µM); in assay [1], 0.03 µg/mL (≈ 0.0689 µM).

On to `CC(C)C(C(=O)OC(C#N)c1cccc(Oc2ccccc2)n1)c1ccc(OC(F)F)cc1` (centres unmarked) [Reference Compd. D], for which the LC50 in the assay with green rice leafhopper stood at 6 µg/mL (≈ 13.3 µM); in the assay with Common cutworm it was 9 µg/mL (≈ 19.9 µM); with Green peach aphid it was 26 µg/mL (≈ 57.5 µM); in assay [1] it was 0.9 µg/mL (≈ 1.99 µM).

Take `CC(C)C(C(=O)OC(C#N)c1cccc(Oc2ccc(F)cc2)n1)c1ccc(Cl)cc1` (centres unmarked) [Reference Compd. A]: the LC50 was 1.4 µg/mL (≈ 3.19 µM) in the assay on green rice leafhopper, 3.1 µg/mL (≈ 7.06 µM) with Common cutworm and 100 µg/mL (≈ 228 µM) in the assay with Kanzawa spider mite.

As for `CC(C)C(C(=O)OC(C#N)c1cccc(Oc2ccc(F)cc2)n1)c1ccc(OC(F)F)cc1` (centres unmarked) [Reference Compd. C], the LC50 in the assay with green rice leafhopper is 76 µg/mL (≈ 162 µM); with Common cutworm, 5 µg/mL (≈ 10.6 µM); with Kanzawa spider mite, above 100 µg/mL; in assay [1], 21 µg/mL (≈ 44.6 µM).

For the molecule `CC(C)(C)c1ccc(C2C(C(=O)OC(C#N)c3cccc(Oc4ccc(F)cc4)n3)C2(C)C)cc1` (centres unmarked) [Reference Compd. G], the values for the LC50 in the assay on green rice leafhopper, in the assay on Common cutworm and in the assay with Kanzawa spider mite were 32 µg/mL (≈ 67.7 µM), 12 µg/mL (≈ 25.4 µM) and 2 µg/mL (≈ 4.23 µM), respectively.

For `CC(C)(C)c1ccc([C@H]2[C@H](C(=O)OC(C#N)c3ccc(F)c(Oc4ccccc4)n3)C2(C)C)cc1` (relative stereo) [Compound No. 4, Cyano(5-fluoro-6-phenoxy-2-pyridyl) methyl trans-2,2-dimethyl-3-(p-t-butylphenyl)cyclopropanecarboxylate], the LC50 with green rice leafhopper is 1.3 µg/mL (≈ 2.75 µM); with Common cutworm it was 4 µg/mL (≈ 8.46 µM); in the assay with Green peach aphid, 4.6 µg/mL (≈ 9.73 µM); in the assay on Kanzawa spider mite it was 0.32 µg/mL (≈ 0.677 µM).

`CC1(C)C(C(=O)OC(C#N)c2cccc(Oc3ccccc3)n2)C1c1ccc(Cl)cc1` (centres unmarked) [Reference Compd. F]: the LC50 is 15 µg/mL (≈ 34.6 µM) in the assay on Common cutworm and 2 µg/mL (≈ 4.62 µM) in assay [1].

For the molecule `CC1(C)[C@@H](C(=O)OC(C#N)c2ccc(F)c(Oc3ccccc3)n2)[C@@H]1c1ccc(Cl)cc1` (relative stereo) [Compound No. 3], the LC50 was found to be 0.7 µg/mL (≈ 1.55 µM) in the assay on green rice leafhopper, 1.3 µg/mL (≈ 2.88 µM) in the assay with Common cutworm and 0.26 µg/mL (≈ 0.577 µM) in assay [1].

With `CC1(C)C(C=C(Cl)Cl)C1C(=O)OCc1cccc(Oc2ccccc2)n1` (centres unmarked) [Reference Compd. I], the median lethal concentration (LC50) with green rice leafhopper was 3.7 µg/mL (≈ 9.43 µM); in the assay on Common cutworm it was 10 µg/mL (≈ 25.5 µM); in the assay on Green peach aphid, 34 µg/mL (≈ 86.7 µM); with Kanzawa spider mite, above 100 µg/mL.

For the molecule `CC(C)C(C(=O)OC(C#N)c1cccc(Oc2ccccc2)n1)c1ccc(Cl)cc1` (centres unmarked) [Reference Compd. B], the values for the LC50 in the assay with green rice leafhopper and in the assay with Common cutworm were 5 µg/mL (≈ 11.9 µM) and 1.7 µg/mL (≈ 4.04 µM), respectively.

For the origin of these results see patent US4504483A, “Fluorine substituted pyridine methyl esters and insecticidal and acaricidal compositions thereof” (Nissan Chemical Industries Ltd., priority 1981, dated 1985).
